US8283345B2, “Azetidine analogues of nucleosidase and phosphorylase inhibitors” (Industrial Research Limited, priority 2006, dated 2012)
Structures can show the parent of a compound that is named as a salt. Where two headings read alike, the source gives them in different places. Values belong to the compound of their own block, whether it stands above or below them.

Experiments:
P. falciparum PNP = target: T1, P. falciparum PNP (Plasmodium falciparum, UniProt Q8I3X4); test: biochemical
T1 sequence (Q8I3X4 1-245): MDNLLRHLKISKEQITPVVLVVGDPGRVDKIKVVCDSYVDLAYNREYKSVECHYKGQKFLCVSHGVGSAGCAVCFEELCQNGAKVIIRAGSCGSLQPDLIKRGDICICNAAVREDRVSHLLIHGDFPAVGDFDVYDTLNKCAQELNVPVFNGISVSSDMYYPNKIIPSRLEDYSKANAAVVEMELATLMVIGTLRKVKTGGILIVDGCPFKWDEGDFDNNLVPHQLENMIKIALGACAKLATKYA
Description: (§2) PNP and MTAN/MTAP activities were monitored by xanthine oxidase coupled assays, as previously described [Biochemistry, 2006, 45, 12929-12941; Biochemistry, 1998, 37, 8615-8621]. […] Michaelis constants used in data fitting were as follows: 40 μM, 34 μM, and 5 μM for inosine with human, bovine, and P. falciparum PNPs, respectively; 5 μM, 0.43 μM, and 23 μM for MTA with human MTAP, E. coli MTAN, and S. pneumoniae MTAN, respectively.

Human PNP = target: T2, Human PNP (Homo sapiens, UniProt P00491); test: PNP inhibition, xanthine oxidase coupled assay; assay type: biochemical; details: inosine Km 40 μM
T2 sequence (P00491 1-289): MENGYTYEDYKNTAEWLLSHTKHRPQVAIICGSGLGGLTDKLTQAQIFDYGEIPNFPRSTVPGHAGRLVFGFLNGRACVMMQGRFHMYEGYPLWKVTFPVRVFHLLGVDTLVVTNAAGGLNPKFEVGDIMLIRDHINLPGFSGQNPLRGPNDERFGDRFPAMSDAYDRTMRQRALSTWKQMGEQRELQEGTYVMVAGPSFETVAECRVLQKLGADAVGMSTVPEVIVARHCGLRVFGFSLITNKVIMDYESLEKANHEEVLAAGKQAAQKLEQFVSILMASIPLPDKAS
Description: as §2

Bovine PNP = target: T3, Bovine PNP (Bos taurus, UniProt P55859); test: PNP inhibition, xanthine oxidase coupled assay; assay type: biochemical
T3 sequence (P55859 1-289): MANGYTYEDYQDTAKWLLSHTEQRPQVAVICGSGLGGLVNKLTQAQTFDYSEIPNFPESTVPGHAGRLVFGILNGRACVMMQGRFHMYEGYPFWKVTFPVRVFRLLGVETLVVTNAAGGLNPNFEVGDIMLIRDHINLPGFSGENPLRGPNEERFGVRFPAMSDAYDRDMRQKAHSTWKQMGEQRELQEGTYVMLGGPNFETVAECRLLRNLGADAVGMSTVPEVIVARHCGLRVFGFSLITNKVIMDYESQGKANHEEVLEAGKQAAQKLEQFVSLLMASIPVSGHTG

E. coli MTAN = E. coli MTAN (Escherichia coli, UniProt P0AF12); test: MTAN inhibition, xanthine oxidase coupled assay; assay type: biochemical; details: MTA Km 0.43 μM
Description: (§1) For PNP assays, inosine and inhibitor concentrations were determined spectrophotometrically using an ε260 of 7.1 mM^−1 cm^−1 (pH 6) [Dawson' et al, Data for Biochemical Research, 3rd ed., 1986, Clarendon Press, Oxford, U.K.] and an ε261 of 9.54 mM^−1 cm^−1 (pH 7) [Lim, M.-I.; Ren, Y.-Y.; Otter, B. A.; Klein, R. S., J. Org. Chem. 1983, 48, 780-788], respectively. For MTAN/MTAP assays, methylthioadenosine and inhibitor concentrations were determined using an ε260 of 14.9 mM^−1 cm^−1 (pH 6) [Dawson et al, as above] and an ε275 of 8.5 mM^−1 cm^−1 (pH 7), [J. Org. Chem. 1983, 48, 780-788] respectively. PNP and MTAN/MTAP activities were monitored by xanthine oxidase coupled assays, as previously described [Biochemistry, 2006, 45, 12929-12941; Biochemistry, 1998, 37, 8615-8621]. In all cases, the inhibitor concentration was at least 10-fold greater than the enzyme concentration, as required for simple analysis of slow-onset tight-binding inhibition [Morrison, J. F.; Walsh, C. T. Adv. Enzymol. Relat. Areas Mol. Biol., 1988, 61, 201-301] Michaelis constants used in data fitting were as follows: 40 μM, 34 μM, and 5 μM for inosine with human, bovine, and P. falciparum PNPs, respectively; 5 μM, 0.43 μM, and 23 μM for MTA with human MTAP, E. coli MTAN, and S. pneumoniae MTAN, respectively.

S. pneumoniae MTAN = S. pneumoniae MTAN (Streptococcus pneumoniae, UniProt Q8DQ16); test: MTAN inhibition, xanthine oxidase coupled assay; assay type: biochemical; details: MTA Km 23 μM
Chain of S. pneumoniae MTAN (Q8DQ16 entry or part of it): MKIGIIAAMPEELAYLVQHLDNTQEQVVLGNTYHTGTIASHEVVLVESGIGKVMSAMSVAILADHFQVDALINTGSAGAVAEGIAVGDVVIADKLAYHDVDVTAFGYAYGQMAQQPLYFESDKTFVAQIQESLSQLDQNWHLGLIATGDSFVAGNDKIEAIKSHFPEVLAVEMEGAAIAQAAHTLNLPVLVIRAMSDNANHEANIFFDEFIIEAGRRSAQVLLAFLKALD
Description: as §1

Human MTAP = target: T4, Human MTAP (Homo sapiens, UniProt Q13126); test: MTAP inhibition, xanthine oxidase coupled assay; assay type: biochemical; details: MTA Km 5 μM
T4 sequence (Q13126 1-283): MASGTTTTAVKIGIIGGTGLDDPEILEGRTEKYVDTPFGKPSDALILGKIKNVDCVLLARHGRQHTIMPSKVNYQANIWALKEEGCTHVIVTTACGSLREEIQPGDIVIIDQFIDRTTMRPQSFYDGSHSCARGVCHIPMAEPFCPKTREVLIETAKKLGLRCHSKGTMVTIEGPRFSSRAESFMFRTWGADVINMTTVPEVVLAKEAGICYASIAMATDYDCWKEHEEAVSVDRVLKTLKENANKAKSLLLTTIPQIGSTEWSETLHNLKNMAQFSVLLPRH
Description: as §2

[1] = inhibition constant Ki, read-out: Ki Human PNP
[2] = inhibition constant Ki, inosine Km 34 μM, read-out: Ki Bovine PNP

Ki (P. falciparum PNP): > 10000 nM | Ki (Human PNP; [1]): 0.229 nM | Ki (Bovine PNP): 0.065 nM | Ki (Bovine PNP; Ki*, slow-onset tight-binding inhibition, inosine Km 34 μM, read-out: Ki* Bovine PNP): 0.236 nM
Structure (SMILES): O=c1[nH]cnc2c(CN3CC(CO)(CO)C3)c[nH]c12 [Compound 18, 1-[(9-Deazahypoxanthin-9-yl)methyl]azetidine-3,3-dimethanol]

Ki (P. falciparum PNP; read-out: Ki P. falciparum PNP): > 10000 nM | Ki (Human PNP; [1]): 6.3 nM | Ki (Bovine PNP; [2]): 4.8 nM
Structure (SMILES): O=c1[nH]cnc2c(CN3CC(CO)C3)c[nH]c12 [Compound 19, 1-[(9-Deazahypoxanthin-9-yl)methyl]azetindine-3-methanol]

Structure (SMILES): O=c1[nH]cnc2c(CN3[C@H](CO)C[C@H]3CO)c[nH]c12 (racemic) [(±)-37, (±)2,4-trans-[(9-Deazahypoxanthin-9-yl)methyl]azetidine-2,4-dimethanol hydrochloride]
Ki (P. falciparum PNP): 580 nM | Ki (Human PNP; [1]): 280 nM | Ki (Bovine PNP; [2]): 360 nM

Structure (SMILES): CSCC1(CO)CN(Cc2c[nH]c3c(N)ncnc23)C1 [Compound 21, 1-[(9-Deazaadenin-9-yl)methyl]-3-methylthiomethylazetidine-3-methanol hydrochloride]
Ki (E. coli MTAN): 0.84 nM | Ki (S. pneumoniae MTAN): 150 nM | Ki (Human MTAP): 140 nM

Ki (Human PNP; Ki Human PNP, inhibition constant Ki): 1.8 nM | Ki (Human PNP; Ki* Human PNP, Ki*, slow-onset tight-binding inhibition): 0.26 nM | Ki (Bovine PNP): 1.8 nM
Structure (SMILES): O=c1[nH]cnc2c(CN3CCC3CO)c[nH]c12 (racemic) [(±)-43, (±)7-((2-(Hydroxymethyl)azetidin-1-yl)methyl)-5H-pyrrolo[3,2-d]pyrimidin-4-ol]

Structure (SMILES): CSCC1CN(Cc2c[nH]c3c(N)ncnc23)C1 [Compound 22, 1-[(9-Deazaadenin-9-yl)methyl]-3-methylthiomethylazetidine]
Ki (E. coli MTAN): 0.45 nM | Ki (S. pneumoniae MTAN): 84 nM | Ki (Human MTAP): 2 nM

Structure (SMILES): O=c1[nH]cnc2c(CN3[C@H](CO)C[C@@H]3CO)c[nH]c12 [Compound 36, meso-[(9-Deazahypoxanthin-9-yl)methyl]azetidine-2,4-dimethanol hydrochloride]
Ki (P. falciparum PNP): 1290 nM | Ki (Human PNP; [1]): 12.9 nM | Ki (Bovine PNP; [2]): 16 nM
